Experiments:
human Sirt3 = target: T1, human Sirt3 (Homo sapiens, UniProt Q9NTG7); test: Homogeneous ZMAL-based fluorescence assay, Sirt3; type: biochemical; settings: 4th round
T1 construct: Human Sirt3_118−395 was expressed and purified as described previously; made in house
T1 sequence (Q9NTG7 118-395): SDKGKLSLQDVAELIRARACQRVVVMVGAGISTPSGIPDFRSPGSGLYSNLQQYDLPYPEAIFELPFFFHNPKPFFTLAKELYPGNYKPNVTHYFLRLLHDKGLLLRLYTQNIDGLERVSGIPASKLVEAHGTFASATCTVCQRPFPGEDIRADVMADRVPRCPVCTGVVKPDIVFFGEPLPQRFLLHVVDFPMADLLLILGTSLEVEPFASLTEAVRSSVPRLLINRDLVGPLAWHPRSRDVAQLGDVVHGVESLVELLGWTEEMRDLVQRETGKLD
Method: Recombinant human Sirt5_37−310 was purchased readily in Tris Buffer [25 mM Tris, 100 mM NaCl, 5 mM DTT, 10% glycerol (v/v)] from Enzo Life Sciences (NY, USA). Human Sirt3_118−395 was expressed and purified as described previously ([54]). For expression of human Sirt1_134−747 and Sirt2_56−356 chemically competent cells of E. coli BL21 Star (DE3) were transformed with the expression vectors pET30S-hSirt1_134−747 or pET30S-hSirt2_56−356. Bacteria were grown at 37°C in 2×YT medium supplemented with 50 μg·mL^−1 of kanamycin to an OD600 of 0.6. Then isopropyl-β-D-1-thiogalactopyranoside (IPTG) was added to a final concentration of 1 mM to induce gene expression. After further cultivation at 20°C for 12 h, the cells were harvested by centrifugation for 15 min at 5,000 g. The cells were resuspended in lysis buffer [100 mM Tris/HCl buffer at pH 8.0, 150 mM NaCl and 10% (v/v) glycerol] and disrupted by ultrasonication (Branson Digital Sonifier 250) at 70% amplitude for 10 min (3 s working, 10 s pause). The crude extract was cleared by centrifugation at 100,000 g for 1 h, and the supernatant was loaded onto a Strep-Tactin Superflow cartridge (5 ml bed volume, IBA Lifescience, Germany). Target proteins were eluted with lysis buffer containing 5 mM D-Desthiobiotin (IBA Lifescience, Germany) and further separated by size-exclusion chromatography (Superdex S200 26/60, GE Healthcare, IL, USA) equilibrated in Tris/HCl buffer (20 mM, 150 mM NaCl, pH 8.0). Pure protein was concentrated by ultrafiltration, flash-frozen in liquid nitrogen and stored at −80°C until further use. Identity as well as purity were verified by SDS-PAGE ([55]) and protein concentration was determined by the bicinchoninic acid (BCA) method, using bovine serum albumin (BSA) as a standard ([56]). Deacetylase activity was confirmed to be NAD^+-dependent and could be inhibited with the physiological sirtuin inhibitor nicotinamide.
All compounds were tested in the trypsin-coupled high-throughput ZMAL-assay in black 96-well plates (OptiPlateTM−96F, black, 96 well, Pinch bar design, PerkinElmer, USA), using ZMAL (Z-Lys(acetyl)-AMC) as a substrate ([57]). Sirt1_134−747, Sirt2_56−356, and Sirt3_118−395 were mixed with 5 μL substrate (10.5 μM final assay concentration, diluted from a […] stock in DMSO) and 3 μL Inhibitor in DMSO at various concentrations or DMSO as a control [final DMSO concentration 5% (v/v)]. The mixture was supplemented with assay buffer (50 mM Tris/HCl, 137 mM NaCl, 2.7 mM KCl, 1 mM MgCL2, pH 8.0) to a total volume of 55 μL. Enzyme concentration was adjusted to get a final conversion of 20–30%. Addition of 5 μL NAD^+ (6 mM in assay buffer, final assay concentration of 500 μM) initiated the catalytic reaction and the plates were incubated at 37°C for 4 h with agitation at 140 rpm. The catalytic reaction was stopped by addition of 60 μL stop solution [50 mM Tris, 100 mM NaCl, 6.7% (V/V) DMSO, 5.5 U/μL trypsin, 8 μM nicotinamide, pH 8.0]. The plate was again incubated at 37°C and 140 rpm for 20 min to release free AMC from the deacetylated substrate by trypsin digestion. Afterwards, fluorescence intensity was measured in a microplate reader (λEx = 390 nm, λEm = 460 nm, BMG POLARstar Optima, BMG Labtech, Germany). An enzyme-free blank control and a 100% conversion control containing AMC instead of ZMAL were measured in addition. Inhibition was calculated in % in relation to a DMSO control after blank signal subtraction and IC50 values were determined using a non-linear regression to fit the dose-response curve with OriginPro 9G (OriginLab, USA). Pre-tests as well as IC50 determination was carried out at least twice in duplicates.

[1] = system: γH2AX/H2AX levels in MEF cells; test: γH2AX level determination by western blot; type: cell-based, mouse; settings: 48 h, EX-527 10 μM, S1th 10 30 μM, S1th 12 20 μM, S1th 13 12 μM, SirReal2 30 μM
Method: Sirt1 WT and KO MEFS cells were treated with 10 μM EX-527, 12 μM S1th 13 (6), 20 μM S1th 12 (5), 30 μM S1th 10 (7) and 30 μM SirReal2 [Sirt2 inhibitor, synthesized according to ([62])] for 48 h. Oxidative stress was induced using 10 μM Camptothecin 2 h. Whole-cell extracts were performed according to the Dignam protocol ([63]). Primary antibodies used for the western blot were anti-H2AX and anti-γH2AX (ab11175 and ab2893 resp., Abcam, UK). Densiometric analysis of the western blots was performed with Quantity One software (Bio-Rad Laboratories, Inc., USA).

HeLa cells = test: Colony forming assay with HeLa cells; type: cell-based, human; settings: 7–10 days; concentrations as in proliferation assay
Method: For colony assays, 50 cells per well were seeded in 6-well plates and grown in the same conditions with the same drug concentrations as for the proliferation assays. In this case, the growth media containing the drugs was replaced every 48 h. After 7–10 days, when isolated colonies were formed, wells were washed with PBS, and cells were fixed with cold methanol for 5 min at RT. Cells were stained with crystal violet for 10 min at RT and washed with H2O. Images were acquired using iBright (Thermo Fisher Scientific, MA, USA). For quantification, cells of each well were resuspended in 10% glacial acetic acid to dissolve crystal violet whose levels were monitored by measuring absorbance at 590 nm. The experiment was performed in duplicates.

SMILES | inhibition at 50 µM (human Sirt3) [%] | γH2AX/H2AX levels without Camptothecin [1] | colony forming of HeLa cells (HeLa cells)
N#CSc1cc(SC#N)c(N)nc1N [PR-619, reference compound] | < 10 |  | 
N#CSc1cccc(NC(=O)[C@H]2CC=CC[C@H]2C(=O)O)c1 [S1th 10] | < 10 | decreased | only mild effects
CCCCNC(=O)Nc1cccc(SC#N)c1 [S1th 11] | < 10 |  | 
COc1ccc(SC#N)cc1OCC(=O)N(CCC#N)CCC#N [S1th 12] | < 10 | decreased | only mild effects
N#CSc1cccc(NS(=O)(=O)c2ccc3c(c2)OCCO3)c1 [S1th 13] | < 10 | decreased | almost as potent as EX-527
